Assay: Solubility of DHEA in various conventional solubilizing agents
Assay type: physicochemical
Conditions: for Solubility after one month (AT): ambient temperature
Description: The solubility of DHEA in various conventional solubilizing agents is mentioned in Table 2 below by way of comparison (the percentage of DHEA is calculated with respect to the total weight of DHEA and of solvent; AT refers to ambient temperature): […]

[1] = solvent Benzoate of C12-15 alcohols, 3% DHEA
[2] = solvent Propylene glycol, 5-10% DHEA
[3] = solvent Propylene glycol, 15-20% DHEA

Question: With `C[C@]12CC[C@H](O)CC1=CC[C@@H]1[C@@H]2CC[C@]2(C)C(=O)CC[C@@H]12` [DHEA, dehydroepiandrosterone] as the compound, how does the Solubility [1] read?
Answer: Soluble at 50 °C

Question: And the “Solubility after one month (AT)” value [1]?
Answer: Crystals

Question: And the Solubility (solvent Dodecanol, 10% DHEA)?
Answer: Insoluble even at

Question: What about the “Solubility after one month (AT)” value (solvent Dodecanol, 10% DHEA) of the same compound?
Answer: Crystals

Question: What about the Solubility (solvent Phenoxyethanol, 20% DHEA (of total weight of DHEA and solvent)) of the same compound?
Answer: Soluble at AT

Question: What about the “Solubility after one month (AT)” value (solvent Phenoxyethanol, 20% DHEA) of the same compound?
Answer: Crystals

Question: And the Solubility [2]?
Answer: Soluble at 50 °C

Question: What about the “Solubility after one month (AT)” value [2] of the same compound?
Answer: Crystals

Question: What about the Solubility [3] of the same compound?
Answer: Insoluble at AT

Question: And the “Solubility after one month (AT)” value [3]?
Answer: Crystals

From patent US6486147B2, “Cosmetic composition containing a steroid and a 2-alkylalkanol or an ester thereof” (L'Oreal, priority 2000, dated 2002)
